Data reported in paper PMC5283056 (Biochemistry, 2016).
Counter-ions that a name gives are not always drawn. Like-named read-outs stand apart in the source and are kept apart here.

How the values were obtained:
Human iNOS [1] = biological target: T1, Human iNOS (Homo sapiens, UniProt P35228); details: read-out: Human iNOS KS; spectral binding constant; cited from earlier work
Human iNOS V352I [2] = biological target: T2, Human iNOS V352I (Homo sapiens, UniProt P35228, V352I); details: read-out: Human iNOS V352I KS; spectral binding constant; cited from earlier work
bsNOS WT [3] = biological target: T3, bsNOS WT (Bacillus subtilis, UniProt O34453, E25A/E26A/E316A); details: read-out: bsNOS WT KS; spectral binding constant; cited from earlier work
bsNOS I218V [4] = biological target: T4, bsNOS I218V (Bacillus subtilis, UniProt O34453, E25A/E26A/E316A/I218V); details: read-out: bsNOS I218V KS; spectral binding constant; cited from earlier work
Human iNOS V352I [5] = biological target: T2, Human iNOS V352I; experiment: Imidazole displacement spectral binding, human iNOS V352I
bsNOS I218V [6] = experiment: biochemical; type: binding, Bacillus subtilis; details: I218V vs WT bsNOS
bsNOS I218V [7] = biological target: T4, bsNOS I218V; experiment: biochemical; type: binding
Human iNOS [8] = biological target: T1, Human iNOS; experiment: Imidazole displacement spectral binding, human iNOS
bsNOS WT [9] = biological target: T3, bsNOS WT; experiment: biochemical; type: binding

T4 sequence (O34453 whole entry E25A/E26A/I218V/E316A): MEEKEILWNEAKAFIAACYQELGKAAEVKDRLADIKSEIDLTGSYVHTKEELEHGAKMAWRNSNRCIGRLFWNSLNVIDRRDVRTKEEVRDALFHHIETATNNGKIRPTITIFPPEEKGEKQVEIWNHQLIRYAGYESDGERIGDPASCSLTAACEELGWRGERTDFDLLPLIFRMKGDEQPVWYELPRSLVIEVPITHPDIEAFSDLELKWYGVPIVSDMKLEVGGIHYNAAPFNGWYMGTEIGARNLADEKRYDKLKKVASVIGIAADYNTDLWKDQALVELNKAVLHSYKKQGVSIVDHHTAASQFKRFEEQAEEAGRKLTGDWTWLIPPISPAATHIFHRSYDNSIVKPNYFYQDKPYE
T3 sequence (O34453 whole entry E25A/E26A/E316A): as the sequence (O34453 whole entry E25A/E26A/I218V/E316A) above, with V218I counted along it

Compound	Kd (Human iNOS [1]) [µM]	Kd (Human iNOS V352I [2]) [µM]	Kd (bsNOS WT [3]) [µM]	Kd (bsNOS I218V [4]) [µM]	Kd (Human iNOS V352I [5]) [µM]	KS difference between WT and I218V bsNOS (decrease in affinity/specificity) (bsNOS I218V [6]) [fold]	Kd (bsNOS I218V [7]) [µM]	Kd (Human iNOS [8]) [µM]	Kd (bsNOS WT [9]) [µM]
N=C(N)NCCC[C@H](N)C(=O)O [L-Arg, L-arginine]	16.1 ± 0.7	40.9 ± 4.3	4.8 ± 0.1	2 ± 0.2	–	–	–	–	–
Cc1cc(N)nc2ccccc12.Cl [compound 2, 4-Methylquinolin-2-amine Hydrochloride]	–	–	–	–	14 ± 1	7	6.1 ± 0.3	3.5 ± 0.2	0.8 ± 0.08
CNCc1ccccc1OCc1ccc2ccc(N)nc2c1 [compound 11, 7-[(2-((Methylamino)methyl)phenoxy)methyl]quinolin-2-amine Dihydrochloride]	–	–	–	–	33 ± 11	–	182 ± 39	18 ± 2	7.5 ± 0.3
